Laboratory results taken from US9149038B2, “4-amino-6-(heterocyclic)picolinates and 6-amino-2-(heterocyclic)pyrimidine-4-carboxylates and their use as herbicides” (Dow AgroSciences LLC, priority 2013, dated 2015).
Where two headings read alike, the source gives them in different places.

Legend:
[1] = test system: Key Broadleaf Weed and Crop Species; assay: Post-Emergent Test II: postemergent herbicidal activity, visual rating after 14 d (Table 7); type: in vivo; settings: post-emergence, 336 h; for pest or weed control at 35 g/ha: 35 g ai/ha; for pest or weed control at 70 g/ha: 70 g ai/ha; for pest or weed control at 140 g/ha: 140 g ai/ha
Outline: (§1)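 Scoring is visual, 0-100, at 14 d after application, comparing treated with untreated plants. Application: overhead track spray at 187 L/ha onto seedlings at 1-2 true leaves, in surfactant/crop-oil carrier.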

[2] = test system: Key Grass and Sedge Weeds as well as Grass Crops; assay: Post-Emergent Test II: postemergent herbicidal activity, visual rating after 14 d (Table 8); type: in vivo; settings: post-emergence, 336 h; for pest or weed control at 35 g/ha: 35 g ai/ha; for pest or weed control at 70 g/ha: 70 g ai/ha; for pest or weed control at 140 g/ha: 140 g ai/ha
Outline: as §1

[3] = lambsquarters (Chenopodium album), read-out: Visual Growth Reduction (%) 14 Days After Application CHEAL
[4] = oilseed rape, canola (Brassica napus), read-out: Visual Growth Reduction (%) 14 Days After Application BRSNN
[5] = redroot pigweed (Amaranthus retroflexus), read-out: Visual Growth Reduction (%) 14 Days After Application AMARE
[6] = sunflower (Helianthus annuus), read-out: Visual Growth Reduction (%) 14 Days After Application HELAN
[7] = velvetleaf (Abutilon theophrasti), read-out: Visual Growth Reduction (%) 14 Days After Application ABUTH
[8] = wild poinsettia (Euphorbia heterophylla), read-out: Visual Growth Reduction (%) 14 Days After Application EPHHL
[9] = barnyardgrass (Echinochloa crus-galli), read-out: Visual Growth Reduction (%) 14 Days After Application ECHCG
[10] = giant foxtail (Setaria faberi), read-out: Visual Growth Reduction (%) 14 Days After Application SETFA
[11] = maize, corn (Zea mays), read-out: Visual Growth Reduction (%) 14 Days After Application ZEAMX
[12] = rice (Oryza sativa), read-out: Visual Growth Reduction (%) 14 Days After Application ORYSA
[13] = wheat, spring (Triticum aestivum), read-out: Visual Growth Reduction (%) 14 Days After Application TRZAS
[14] = yellow nutsedge (Cyperus esculentus), read-out: Visual Growth Reduction (%) 14 Days After Application CYPES

COc1c(N)nc(-c2ccc3c(c2F)OC(F)(F)O3)nc1C(=O)O [Compound 66]
pest or weed control at 35 g/ha [1, 3]: 45 to 59% | pest or weed control at 70 g/ha [1, 3]: 85 to 94% | pest or weed control at 140 g/ha [1, 3]: 95 to 100% | pest or weed control at 35 g/ha [1, 4]: 60 to 74% | pest or weed control at 70 g/ha [1, 4]: 75 to 84% | pest or weed control at 140 g/ha [1, 4]: 85 to 94% | pest or weed control at 35 g/ha [1, 5]: 95 to 100% | pest or weed control at 70 g/ha [1, 5]: 95 to 100% | pest or weed control at 140 g/ha [1, 5]: 95 to 100% | pest or weed control at 35 g/ha [1, 6]: 75 to 84% | pest or weed control at 70 g/ha [1, 6]: 85 to 94% | pest or weed control at 140 g/ha [1, 6]: 95 to 100% | pest or weed control at 35 g/ha [1, 7]: 75 to 84% | pest or weed control at 70 g/ha [1, 7]: 75 to 84% | pest or weed control at 140 g/ha [1, 7]: 85 to 94% | pest or weed control at 35 g/ha [1, 8]: 95 to 100% | pest or weed control at 70 g/ha [1, 8]: 95 to 100% | pest or weed control at 140 g/ha [1, 8]: 95 to 100% | pest or weed control at 35 g/ha [2, 9]: 95 to 100% | pest or weed control at 70 g/ha [2, 9]: 95 to 100% | pest or weed control at 140 g/ha [2, 9]: 95 to 100% | pest or weed control at 35 g/ha [2, 10]: 75 to 84% | pest or weed control at 70 g/ha [2, 10]: 75 to 84% | pest or weed control at 140 g/ha [2, 10]: 85 to 94% | pest or weed control at 35 g/ha [2, 11]: 60 to 74% | pest or weed control at 70 g/ha [2, 11]: 60 to 74% | pest or weed control at 140 g/ha [2, 11]: 75 to 84% | pest or weed control at 35 g/ha [2, 12]: 30 to 44% | pest or weed control at 70 g/ha [2, 12]: 30 to 44% | pest or weed control at 140 g/ha [2, 12]: 30 to 44% | pest or weed control at 35 g/ha [2, 13]: 45 to 59% | pest or weed control at 70 g/ha [2, 13]: 60 to 74% | pest or weed control at 140 g/ha [2, 13]: 60 to 74% | pest or weed control at 35 g/ha [2, 14]: 0 to 29% | pest or weed control at 70 g/ha [2, 14]: 95 to 100% | pest or weed control at 140 g/ha [2, 14]: 95 to 100%

COC(=O)c1nc(-c2ccc3c(c2F)OC(F)(F)O3)cc(N)c1Cl [Compound 37, Methyl 4-amino-3-chloro-6-(2,2,4-trifluorobenzo-[d][1,3]dioxol-5-yl)picolinate]
pest or weed control at 35 g/ha [1, 3]: 95 to 100% | pest or weed control at 70 g/ha [1, 3]: 95 to 100% | pest or weed control at 140 g/ha [1, 3]: 95 to 100% | pest or weed control at 35 g/ha [1, 4]: 85 to 94% | pest or weed control at 70 g/ha [1, 4]: 95 to 100% | pest or weed control at 140 g/ha [1, 4]: 95 to 100% | pest or weed control at 35 g/ha [1, 5]: 85 to 94% | pest or weed control at 70 g/ha [1, 5]: 95 to 100% | pest or weed control at 140 g/ha [1, 5]: 95 to 100% | pest or weed control at 35 g/ha [1, 6]: 0 to 29% | pest or weed control at 70 g/ha [1, 6]: 30 to 44% | pest or weed control at 140 g/ha [1, 6]: 75 to 84% | pest or weed control at 35 g/ha [1, 7]: 95 to 100% | pest or weed control at 70 g/ha [1, 7]: 95 to 100% | pest or weed control at 140 g/ha [1, 7]: 95 to 100% | pest or weed control at 35 g/ha [1, 8]: 95 to 100% | pest or weed control at 70 g/ha [1, 8]: 95 to 100% | pest or weed control at 140 g/ha [1, 8]: 95 to 100% | pest or weed control at 35 g/ha [2, 9]: 95 to 100% | pest or weed control at 70 g/ha [2, 9]: 95 to 100% | pest or weed control at 140 g/ha [2, 9]: 95 to 100% | pest or weed control at 35 g/ha [2, 10]: 60 to 74% | pest or weed control at 70 g/ha [2, 10]: 95 to 100% | pest or weed control at 140 g/ha [2, 10]: 95 to 100% | pest or weed control at 35 g/ha [2, 11]: 60 to 74% | pest or weed control at 70 g/ha [2, 11]: 75 to 84% | pest or weed control at 140 g/ha [2, 11]: 85 to 94% | pest or weed control at 35 g/ha [2, 12]: 0 to 29% | pest or weed control at 70 g/ha [2, 12]: 0 to 29% | pest or weed control at 140 g/ha [2, 12]: 0 to 29% | pest or weed control at 35 g/ha [2, 13]: 0 to 29% | pest or weed control at 70 g/ha [2, 13]: 0 to 29% | pest or weed control at 140 g/ha [2, 13]: 0 to 29% | pest or weed control at 35 g/ha [2, 14]: 95 to 100% | pest or weed control at 70 g/ha [2, 14]: 95 to 100% | pest or weed control at 140 g/ha [2, 14]: 95 to 100%

COC(=O)c1nc(-c2ccc3c(c2F)OC(F)(F)O3)c(Cl)c(N)c1Cl [Compound 4]
pest or weed control at 35 g/ha [1, 3]: 0 to 29% | pest or weed control at 70 g/ha [1, 3]: 0 to 29% | pest or weed control at 140 g/ha [1, 3]: 0 to 29% | pest or weed control at 35 g/ha [1, 4]: 0 to 29% | pest or weed control at 70 g/ha [1, 4]: 0 to 29% | pest or weed control at 140 g/ha [1, 4]: 0 to 29% | pest or weed control at 35 g/ha [1, 5]: 0 to 29% | pest or weed control at 70 g/ha [1, 5]: 0 to 29% | pest or weed control at 140 g/ha [1, 5]: 0 to 29% | pest or weed control at 35 g/ha [1, 6]: 0 to 29% | pest or weed control at 70 g/ha [1, 6]: 45 to 59% | pest or weed control at 140 g/ha [1, 6]: 60 to 74% | pest or weed control at 35 g/ha [1, 7]: 0 to 29% | pest or weed control at 70 g/ha [1, 7]: 0 to 29% | pest or weed control at 140 g/ha [1, 7]: 0 to 29% | pest or weed control at 35 g/ha [1, 8]: 0 to 29% | pest or weed control at 70 g/ha [1, 8]: 0 to 29% | pest or weed control at 140 g/ha [1, 8]: 0 to 29% | pest or weed control at 35 g/ha [2, 9]: 0 to 29% | pest or weed control at 70 g/ha [2, 9]: 0 to 29% | pest or weed control at 140 g/ha [2, 9]: 0 to 29% | pest or weed control at 35 g/ha [2, 10]: 0 to 29% | pest or weed control at 70 g/ha [2, 10]: 0 to 29% | pest or weed control at 140 g/ha [2, 10]: 0 to 29% | pest or weed control at 35 g/ha [2, 11]: 0 to 29% | pest or weed control at 70 g/ha [2, 11]: 0 to 29% | pest or weed control at 140 g/ha [2, 11]: 0 to 29% | pest or weed control at 35 g/ha [2, 12]: 0 to 29% | pest or weed control at 70 g/ha [2, 12]: 0 to 29% | pest or weed control at 140 g/ha [2, 12]: 0 to 29% | pest or weed control at 35 g/ha [2, 13]: 0 to 29% | pest or weed control at 70 g/ha [2, 13]: 0 to 29% | pest or weed control at 140 g/ha [2, 13]: 0 to 29% | pest or weed control at 35 g/ha [2, 14]: 0 to 29% | pest or weed control at 70 g/ha [2, 14]: 0 to 29% | pest or weed control at 140 g/ha [2, 14]: 0 to 29%

COC(=O)c1nc(-c2ccc3c(c2F)OC(F)(F)O3)nc(N)c1Cl [Compound 58]
pest or weed control at 35 g/ha [1, 3]: 95 to 100% | pest or weed control at 70 g/ha [1, 3]: 95 to 100% | pest or weed control at 140 g/ha [1, 3]: 95 to 100% | pest or weed control at 35 g/ha [1, 4]: 0 to 29% | pest or weed control at 70 g/ha [1, 4]: 0 to 29% | pest or weed control at 140 g/ha [1, 4]: 60 to 74% | pest or weed control at 35 g/ha [1, 5]: 0 to 29% | pest or weed control at 70 g/ha [1, 5]: 45 to 59% | pest or weed control at 140 g/ha [1, 5]: 95 to 100% | pest or weed control at 35 g/ha [1, 6]: 75 to 84% | pest or weed control at 70 g/ha [1, 6]: 75 to 84% | pest or weed control at 140 g/ha [1, 6]: 75 to 84% | pest or weed control at 35 g/ha [1, 7]: 0 to 29% | pest or weed control at 70 g/ha [1, 7]: 0 to 29% | pest or weed control at 140 g/ha [1, 7]: 75 to 84% | pest or weed control at 35 g/ha [1, 8]: 95 to 100% | pest or weed control at 70 g/ha [1, 8]: 95 to 100% | pest or weed control at 140 g/ha [1, 8]: 95 to 100% | pest or weed control at 35 g/ha [2, 9]: 75 to 84% | pest or weed control at 70 g/ha [2, 9]: 85 to 94% | pest or weed control at 140 g/ha [2, 9]: 95 to 100% | pest or weed control at 35 g/ha [2, 10]: 30 to 44% | pest or weed control at 70 g/ha [2, 10]: 45 to 59% | pest or weed control at 140 g/ha [2, 10]: 45 to 59% | pest or weed control at 35 g/ha [2, 11]: 45 to 59% | pest or weed control at 70 g/ha [2, 11]: 60 to 74% | pest or weed control at 140 g/ha [2, 11]: 75 to 84% | pest or weed control at 35 g/ha [2, 12]: 0 to 29% | pest or weed control at 70 g/ha [2, 12]: 0 to 29% | pest or weed control at 140 g/ha [2, 12]: 0 to 29% | pest or weed control at 35 g/ha [2, 13]: 0 to 29% | pest or weed control at 70 g/ha [2, 13]: 0 to 29% | pest or weed control at 140 g/ha [2, 13]: 0 to 29% | pest or weed control at 35 g/ha [2, 14]: 60 to 74% | pest or weed control at 70 g/ha [2, 14]: 60 to 74% | pest or weed control at 140 g/ha [2, 14]: 60 to 74%
